# Measurements published in paper PMC6429262, “Design and Synthesis of Novel Anti-Proliferative Emodin Derivatives and Studies on their Cell Cycle Arrest, Apoptosis Pathway and Migration” (Molecules, 2019).
# Assays:
# [1] = tested on: HepG2 cells; assay: CellTiter-Glo Luminescent Cell Viability Assay, HepG2; type: cell-based, human; conditions: for IC50: 48 h, mean of three independent experiments
# Method: (§1) The in vitro anti-proliferative activities of all the novel synthesized compounds were evaluated against HepG2 cells and MCF-7 cells by CellTiter-Glo® Luminescent Cell Viability Assay, using paclitaxel (a clinically used drug) as a positive control. Emodin (1) and compound 2 were also included for comparison.
# (§2) HepG2 cells and MCF-7 cells were purchased from American Type Culture Collection (ATCC, Manassas, VA, USA). Cells were cultured in T75 flask (430641, Corning, New York, NY, USA), supplemented with high-glucose DMEM medium (Dulbecco’s modified Eagle’s medium, 11965-092, Gibco, New York, NY, USA) containing 10% Fetal bovine serum (FBS) and 1% penicillin (100 units/mL)-streptomycin (100 µg/mL) in a humidified incubator at 37 °C under 5% CO2 and 95% relative humidity (RH) atmosphere. The cells were harvested for metabolomics experiments using cell scrapers.
# (§3) HepG2 cells and MCF-7 cells in 40 µL DMEM supplemented with 10% FBS were seeded at a density of 500 cells/well in 384-well cell culture plate (3570, Corning), respectively. After 24 h, the medium was substituted with fresh medium containing various sample solutions in DMSO (0.5%, v/v) at a dose range of 0.14–100 µM with 3-fold serial dilutions, and cells were cultured for another 48 h. Cells were cultured in medium without samples but 0.5% DMSO served as a control. All measurements were determined in triplicate for each treatment. After the sample treatment for 48 h, 20 µL CellTiter-Glo (G7573, Promega, Fitchburg, WI, USA) was added to each well containing cells and the contents were mixed for 2 min on an orbital shaker to induce cell lysis. The plates were then incubated at room temperature for 20 min to stabilize the luminescent signal. The luminescence was recorded on an Envision 2014 (Perkin Elmer, Waltham, MA, UAS). The IC50 values represented the samples’ concentrations required to inhibit 50% of cell proliferation and were calculated from a calibration curve by linear regression using GraphPad Prism 7.0 software (GraphPad Software, San Diego, CA, USA).
# [2] = tested on: MCF-7 cells; assay: CellTiter-Glo Luminescent Cell Viability Assay, MCF-7; type: cell-based, human; conditions: for IC50: MCF-7 cells, 48 h, mean of three independent experiments
# Method: as §1, §2, §3
# [3] = tested on: L02 cells; assay: Cytotoxic activity against human normal liver cells (L02); type: cell-based
# [4] = tested on: Bax; assay: Western blot, Bax; type: cell-based, human; conditions: 48 h
# Method: (§4) Total cell lysates from cultured HepG2 cells treated with different concentrations of compound 7a for 48 h were obtained by lysing the cells in ice-cold RIPA buffer (1 PBS, 1% NP-40, 0.5% sodium deoxycholate and 0.1% SDS) containing […] PMSF, 5 mg/mL aprotinin, 5 mg/mL leupeptin, 5 mg/mL pepstatin and […] NaF. After centrifugation at 12,000 rpm for 10 min, the protein in the supernatant was quantified by the Bradford method (BIO-RAD, Hercules, CA, USA) using a Multimode Varioscan instrument (Thermo Fischer Scientific, Waltham, MA, USA). Twenty micrograms of protein per lane was applied in 12% SDS polyacrylamide gel. After electrophoresis, the protein was transferred to a polyvinylidine difluoride membrane (Amersham Biosciences, Marlborough, MA, USA). The membrane was blocked at room temperature for 2 h in TBST containing 5% blocking powder (Santa Cruz, Dallas, TX, USA). The membrane was washed with TBST for 5 min, and the primary antibody was added and incubated at 4 °C overnight (O/N). Bax (5023, CST, Danvers, MA, USA), Bcl-2 (15071, CST), cytochrome c (4280, CST), procaspase-9 (AB138412, Abcam, Cambridge, MA, USA), procaspase-3 (AB32150, Abcam), caspase-3 (66470-2-lg, Proteintech Group, Rosemont, IL, USA) and GAPDH (AB8245, Abcam) antibodies were employed. After three TBST washes, the membrane was incubated with the corresponding horseradish peroxidase-labeled secondary antibody (1:5000) (Santa Cruz) at room temperature for 2 h. Membranes were washed with TBST for 15 min five times and the protein blots were visualized with chemiluminescence reagent (Thermo Fischer Scientific Ltd.). The X-ray films were developed with a developer and fixed with fixer solution. The grey levels were analyzed using ImageQuant LAS 4000 system (GE, Marlborough, MA, USA).
# [5] = tested on: Bcl-2; assay: Western blot, Bcl-2; type: cell-based, human; conditions: 48 h
# Method: as §4
# [6] = tested on: cytochrome c; assay: Western blot, cytochrome c; type: cell-based, human; conditions: 48 h
# Method: as §4
# [7] = tested on: procaspase-3; assay: Western blot, procaspase-3; type: cell-based, human; conditions: 48 h
# Method: as §4
# [8] = tested on: procaspase-9; assay: Western blot, procaspase-9; type: cell-based, human; conditions: 48 h
# Method: as §4
# [9] = tested on: caspase-3; assay: Western blot, cleaved caspase-3; type: cell-based, human; conditions: 48 h
# Method: as §4
smiles,measurement,setting,value
"Cc1cc(O)c2c(c1)C(=O)c1cc(OCCCOC(=O)[C@@H](C)N)cc(O)c1C2=O.O=C(O)C(F)(F)F [Compound 7a, (R)-1-(3-(4,5-Dihydroxy-7-methyl-9,10-dioxo-9,10-dihydroanthracen-2-yloxy)propoxy)-1-oxopropan-2-aminium 2,2,2-trifluoroacetate]",IC50,[1]; HepG2 cells,6.47 ± 0.21 µM
same,enhancement of anti-proliferative activity compared to emodin,"[1]; HepG2 cells, IC50 ratio to parent compound emodin",8.8 fold
same,IC50,"[1]; Homo sapiens, HepG2, 48 h, HepG2 cells",4.95 ± 0.14 µM
same,Selectivity Index HepG2,[1]; IC50 on normal cells (L02)/IC50 on cancer cells (HepG2),2.82
same,IC50,"[2]; Homo sapiens, MCF7, 48 h",5.92 ± 0.36 µM
same,Selectivity Index MCF-7,[2]; IC50 on normal cells (L02)/IC50 on cancer cells (MCF-7),2.36
same,IC50,[2],6.47 ± 0.18 µM
same,IC50,"[3]; Homo sapiens, L02, human normal liver L02 cells",14 ± 0.27 µM
same,IC50,[3]; human normal liver L02 cells,18.5 ± 0.19 µM
same,"Relative expression level, Bax","[4]; HepG2, 2.5 μM",1.180 ± 0.046
same,"Relative expression level, Bax","[4]; HepG2, 5 μM",1.347 ± 0.081
same,"Relative expression level, Bax","[4]; HepG2, 10 μM",1.593 ± 0.112
same,"Relative expression level, Bcl-2","[5]; HepG2, 2.5 μM",0.685 ± 0.025
same,"Relative expression level, Bcl-2","[5]; HepG2, 5 μM",0.312 ± 0.012
same,"Relative expression level, Bcl-2","[5]; HepG2, 10 μM",0.268 ± 0.022
same,"Relative expression level, cytochrome c","[6]; HepG2, 2.5 μM",1.407 ± 0.015
same,"Relative expression level, cytochrome c","[6]; HepG2, 5 μM",1.663 ± 0.110
same,"Relative expression level, cytochrome c","[6]; HepG2, 10 μM",2.220 ± 0.387
same,"Relative expression level, Full length procaspase-3","[7]; HepG2, 2.5 μM",0.78 ± 0.012
same,"Relative expression level, procaspase-3","[7]; HepG2, 2.5 μM",0.510 ± 0.132
same,"Relative expression level, Full length procaspase-3","[7]; HepG2, 5 μM",0.220 ± 0.019
same,"Relative expression level, procaspase-3","[7]; HepG2, 5 μM",0.317 ± 0.031
same,"Relative expression level, Full length procaspase-3","[7]; HepG2, 10 μM",0.152 ± 0.009
same,"Relative expression level, procaspase-3","[7]; HepG2, 10 μM",0.170 ± 0.053
same,"Relative expression level, procaspase-9","[8]; HepG2, 2.5 μM",0.600 ± 0.082
same,"Relative expression level, procaspase-9","[8]; HepG2, 5 μM",0.297 ± 0.058
same,"Relative expression level, procaspase-9","[8]; HepG2, 10 μM",0.223 ± 0.029
same,"Relative expression level, Cleaved Caspase-3","[9]; HepG2, 2.5 μM",0.056 ± 0.011
same,"Relative expression level, Cleaved Caspase-3","[9]; HepG2, 5 μM",0.143 ± 0.013
same,"Relative expression level, Cleaved Caspase-3","[9]; HepG2, 10 μM",0.185 ± 0.026
